According to DBAASP:
≈ marks a conversion by molar mass, not a printed value. Values belong to the compound of their own block, whether it stands above or below them.

What was measured:
Assay in all cases: ≥ marks a high value that may be exact or a test limit, other limits are often not marked, values filed in µg/mL are converted to µM
[1] = system: Acinetobacter baumannii ATCC 19606
[2] = system: Acinetobacter junii RT-4
[3] = system: Bacillus megaterium Bm11
[4] = system: Candida albicans ATCC 10231
[5] = system: Enterococcus faecalis ATCC 29212
[6] = system: Escherichia coli ATCC 25922
[7] = system: Escherichia coli D21
[8] = system: Pseudomonas aeruginosa ATCC 15692
[9] = system: Pseudomonas aeruginosa ATCC 27853
[10] = system: Pseudomonas syringae pv. tabaci 1918NCPPB
[11] = system: Saccharomyces cerevisiae
[12] = system: Schizosaccharomyces pombe
[13] = system: Staphylococcus aureus ATCC 25923
[14] = system: Staphylococcus aureus Cowan 1
[15] = system: Staphylococcus capitis 1
[16] = system: Staphylococcus epidermidis ATCC 12228
[17] = system: Streptococcus pyogenes ATCC 21547
[18] = system: Yersinia pseudotuberculosis YPIII
[19] = system: Acinetobacter sp. DSM 586
[20] = system: Arthrobacter globiformis VKM Ac-1112
[21] = system: Bacillus subtilis VKM B-501
[22] = system: Bacillus subtilis subsp. spizizenii DSM 347
[23] = system: Escherichia coli DH5alpha
[24] = system: Escherichia coli DSM 1116
[25] = system: Escherichia coli MH1
[26] = system: Pseudomonas aeruginosa PAO1
[27] = system: Saccharomyces cerevisiae Y190
[28] = system: Staphylococcus xylosus DSM 20267
[29] = system: Aspergillus flavus KCTC 1375
[30] = system: Candida albicans ATCC 90028
[31] = system: Enterococcus faecium ATCC 19434
[32] = system: Enterococcus faecium
[33] = system: Escherichia coli O157:H7 ATCC 43895
[34] = system: Escherichia coli
[35] = system: Malassezia furfur KCTC 7744
[36] = system: Pseudomonas aeruginosa
[37] = system: Staphylococcus aureus
[38] = system: Bacillus subtilis ATCC 62037
[39] = system: Cryptococcus neoformans ATCC 34881
[40] = system: Escherichia coli ATCC 27325
[41] = system: Pseudomonas putida ATCC 17426
[42] = system: Saccharomyces cerevisiae ATCC 44774
[43] = system: Salmonella enterica subsp. enterica serovar Enteritidis ATCC 13076
[44] = system: Staphylococcus aureus ATCC 15752
[45] = system: Streptococcus mutans ATCC 25175

MIC [1]: 6 µM (≈ 9.65 µg/mL)
MIC [2]: 6 µM (≈ 9.65 µg/mL)
MIC [3]: 1.5 µM (≈ 2.41 µg/mL)
MIC [4]: 6 µM (≈ 9.65 µg/mL)
MIC [5]: 6 µM (≈ 9.65 µg/mL)
MIC [6]: 24 µM (≈ 38.6 µg/mL)
MIC [7]: 12 µM (≈ 19.3 µg/mL)
MIC [8]: 24 µM (≈ 38.6 µg/mL)
MIC [9]: > 48 µM
MIC [10]: 6 µM (≈ 9.65 µg/mL)
MIC [11]: 6 µM (≈ 9.65 µg/mL)
MIC [12]: 3 µM (≈ 4.83 µg/mL)
MIC [13]: 3 µM (≈ 4.83 µg/mL)
MIC [14]: 1.5 µM (≈ 2.41 µg/mL)
MIC [15]: 1.5 µM (≈ 2.41 µg/mL)
MIC [16]: 1.5 µM (≈ 2.41 µg/mL)
MIC [17]: 6 µM (≈ 9.65 µg/mL)
MIC [18]: 3 µM (≈ 4.83 µg/mL)
SMILES: CC[C@H](C)[C@H](NC(=O)[C@H](CCCN=C(N)N)NC(=O)CNC(=O)[C@H](CC(C)C)NC(=O)[C@H](Cc1ccccc1)NC(=O)[C@H](CCCCN)NC(=O)[C@H](CO)NC(=O)[C@H](Cc1ccccc1)NC(=O)[C@H](Cc1c[nH]c2ccccc12)NC(=O)[C@@H]1CCCN1C(=O)[C@@H](NC(=O)[C@@H](N)Cc1ccccc1)C(C)C)C(=O)N[C@@H](CC(C)C)C(N)=O [FVPWFSKFLGRIL]

MIC [19]: 2.76 µM (≈ 8 µg/mL)
MIC [20]: 0.3 µM (≈ 0.871 µg/mL)
MIC [21]: 1.1 µM (≈ 3.19 µg/mL)
MIC [22]: 2.76 µM (≈ 8 µg/mL)
MIC [23]: 4.5 µM (≈ 13.1 µg/mL)
MIC [24]: 11 µM (≈ 32 µg/mL)
MIC [25]: 3.2 µM (≈ 9.29 µg/mL)
MIC [26]: > 35 µM
MIC [27]: 18 µM (≈ 52.2 µg/mL)
MIC [28]: 1.38 µM (≈ 4 µg/mL)
SMILES: CC[C@H](C)[C@H](NC(=O)[C@H](Cc1ccc(O)cc1)NC(=O)[C@H](CCC(N)=O)NC(=O)[C@H](CCCCN)NC(=O)[C@H](CC(C)C)NC(=O)[C@H](CCCCN)NC(=O)[C@H](CCC(=O)O)NC(=O)CNC(=O)[C@H](CCSC)NC(=O)[C@H](CO)NC(=O)[C@H](CCCCN)NC(=O)[C@H](Cc1ccccc1)NC(=O)[C@H](CCCCN)NC(=O)[C@H](CC(=O)O)NC(=O)[C@H](CCCCN)NC(=O)[C@H](CC(C)C)NC(=O)CN)C(=O)N[C@@H](CCC(N)=O)C(=O)N[C@H](C(=O)N[C@@H](Cc1c[nH]c2ccccc12)C(=O)N[C@@H](CCCCN)C(=O)N[C@@H](C)C(=O)N[C@@H](CCCCN)C(=O)N[C@@H](Cc1ccccc1)C(N)=O)[C@@H](C)O [GLKDKFKSMGEKLKQYIQTWKAKF]

MIC [29]: 10 µM (≈ 23 µg/mL)
MIC [30]: 10 µM (≈ 23 µg/mL)
MIC [31]: 10 µM (≈ 23 µg/mL)
MIC [32]: 7.07 µM (≈ 16.2 µg/mL)
MIC [33]: 7.07 µM (≈ 16.2 µg/mL)
MIC [34]: 7.07 µM (≈ 16.2 µg/mL)
MIC [35]: 10 µM (≈ 23 µg/mL)
MIC [9]: 7.07 µM (≈ 16.2 µg/mL)
MIC [36]: 10 µM (≈ 23 µg/mL)
MIC [13]: 10 µM (≈ 23 µg/mL)
MIC [37]: 7.07 µM (≈ 16.2 µg/mL)
SMILES: CC(C)C[C@H](NC(=O)[C@H](C)NC(=O)[C@H](C)NC(=O)[C@H](CCCCN)NC(=O)CNC(=O)[C@@H](NC(=O)[C@H](Cc1cnc[nH]1)NC(=O)[C@H](CCCCN)NC(=O)CNC(=O)[C@@H](NC(=O)[C@H](Cc1cnc[nH]1)NC(=O)[C@H](C)NC(=O)[C@H](C)NC(=O)[C@H](CCCCN)NC(=O)[C@H](CCCCN)NC(=O)[C@H](Cc1ccccc1)NC(=O)[C@H](Cc1ccccc1)NC(=O)[C@H](CO)NC(=O)CNC(=O)[C@H](Cc1c[nH]c2ccccc12)NC(=O)CN)C(C)C)C(C)C)C(=O)N[C@H](C(N)=O)[C@@H](C)O [GWGSFFKKAAHVGKHVGKAALT]

MIC [38]: 0.535 µM (≈ 1.41 µg/mL)
MIC [4]: 0.379 µM (≈ 1 µg/mL)
MIC [39]: 0.379 µM (≈ 1 µg/mL)
MIC [40]: 0.268 µM (≈ 0.707 µg/mL)
MIC [41]: 0.379 µM (≈ 1 µg/mL)
MIC [42]: 0.268 µM (≈ 0.707 µg/mL)
MIC [43]: 0.535 µM (≈ 1.41 µg/mL)
MIC [44]: 0.535 µM (≈ 1.41 µg/mL)
MIC [45]: 0.535 µM (≈ 1.41 µg/mL)
SMILES: CC[C@H](C)[C@H](NC(=O)[C@@H]1CCCN1C(=O)[C@H](Cc1c[nH]c2ccccc12)NC(=O)[C@H](CCC(N)=O)NC(=O)[C@H](CCCN=C(N)N)NC(=O)[C@@H](NC(=O)[C@@H](NC(=O)[C@@H](N)CCCN=C(N)N)C(C)C)C(C)C)C(=O)NCC(=O)N[C@@H](CCCN=C(N)N)C(=O)N[C@H](C(=O)N[C@H](C(=O)N[C@@H](CCCN=C(N)N)C(=O)N[C@@H](CCCN=C(N)N)C(=O)N[C@H](C(=O)N[C@H](C(=O)N[C@@H](CCCN=C(N)N)C(=O)N[C@@H](CCCN=C(N)N)C(=O)N[C@H](C(=O)N[C@H](C(=O)N[C@@H](CCCN=C(N)N)C(=O)O)C(C)C)C(C)C)C(C)C)C(C)C)C(C)C)C(C)C [RVVRQWPIGRVVRRVVRRVVR]
